Measurements from the NIST ThermoML archive (doi:10.1016/j.tca.2018.01.023).
“And” between values parts separate entries of the source, which are not always exact repeats. Equal values may be shown once.

Assay: molar heat capacity at constant pressure
Conditions: 101.33 kPa, Crystal, Small sample (50 mg) DSC

[Ca+2].[O]=[Mo](=[O])([O-])[O-] [calcium molybdate(VI)]
Conditions	molar heat capacity at constant pressure
596.4 K	141.2 J/K/mol
597 K	142.1 J/K/mol
597.4 K	141.3 J/K/mol
598 K	142.2 J/K/mol
598.4 K	141.3 J/K/mol
599 K	142.2 J/K/mol
599.4 K	141.3 J/K/mol
600 K	141.5 J/K/mol and 142.3 J/K/mol
600.4 K	141.3 J/K/mol
601 K	142.4 J/K/mol
601.4 K	141.4 J/K/mol
602 K	142.4 J/K/mol
602.4 K	141.4 J/K/mol
603 K	142.5 J/K/mol
603.4 K	141.4 J/K/mol
604.1 K	142.4 J/K/mol
604.4 K	141.4 J/K/mol
605.1 K	142.4 J/K/mol
605.4 K	141.4 J/K/mol
606.1 K	142.4 J/K/mol
606.4 K	141.5 J/K/mol
607.1 K	142.5 J/K/mol
607.4 K	141.5 J/K/mol
608.1 K	142.5 J/K/mol
608.4 K	141.5 J/K/mol
609.1 K	142.6 J/K/mol
609.4 K	141.5 J/K/mol
610.1 K	142.7 J/K/mol
610.4 K	141.5 J/K/mol
611.1 K	142.7 J/K/mol
611.4 K	141.5 J/K/mol
612.1 K	142.7 J/K/mol
612.4 K	141.5 J/K/mol
613.1 K	142.8 J/K/mol
613.4 K	141.6 J/K/mol
614.1 K	142.8 J/K/mol
614.4 K	141.6 J/K/mol
615.1 K	142.8 J/K/mol
615.4 K	141.6 J/K/mol
616.1 K	142.9 J/K/mol
616.4 K	141.6 J/K/mol
617.1 K	142.9 J/K/mol
617.4 K	141.6 J/K/mol
618.1 K	142.9 J/K/mol
618.4 K	141.6 J/K/mol
619.1 K	143 J/K/mol
619.4 K	141.5 J/K/mol
620 K	142.4 J/K/mol
620.1 K	143.1 J/K/mol
620.4 K	141.5 J/K/mol
621.1 K	143.2 J/K/mol
621.4 K	141.4 J/K/mol
622.1 K	143.2 J/K/mol
622.4 K	141.5 J/K/mol
623.1 K	143.3 J/K/mol
623.4 K	141.5 J/K/mol
624.1 K	143.3 J/K/mol
624.4 K	141.6 J/K/mol
624.5 K	143.3 J/K/mol
625.4 K	141.6 J/K/mol
626.4 K	141.7 J/K/mol
627.4 K	141.7 J/K/mol
628.4 K	141.7 J/K/mol
629.4 K	141.8 J/K/mol
630.4 K	141.8 J/K/mol
631.4 K	141.9 J/K/mol
632.4 K	142.1 J/K/mol
633.4 K	142.2 J/K/mol
634.4 K	142.3 J/K/mol
635.4 K	142.3 J/K/mol
636.4 K	142.4 J/K/mol
637.4 K	142.4 J/K/mol
638.4 K	142.4 J/K/mol
639.4 K	142.5 J/K/mol
640 K	143.2 J/K/mol
640.4 K	142.6 J/K/mol
641.4 K	142.7 J/K/mol
642.4 K	142.8 J/K/mol
643.4 K	142.8 J/K/mol
644.4 K	142.9 J/K/mol
645.4 K	142.9 J/K/mol
646.4 K	143 J/K/mol
647.4 K	143 J/K/mol
648.4 K	143 J/K/mol
649.4 K	143.1 J/K/mol
650.4 K	143.2 J/K/mol
651.4 K	143.2 J/K/mol
652.4 K	143.3 J/K/mol
653.4 K	143.4 J/K/mol
654.4 K	143.4 J/K/mol
655.4 K	143.5 J/K/mol
656.4 K	143.6 J/K/mol
657.4 K	143.6 J/K/mol
658.4 K	143.7 J/K/mol
659.4 K	143.8 J/K/mol
660 K	144 J/K/mol
660.4 K	143.8 J/K/mol
661.4 K	143.9 J/K/mol
662.4 K	144 J/K/mol
663.4 K	144 J/K/mol
664.4 K	144.1 J/K/mol
665.4 K	144.2 J/K/mol
666.4 K	144.2 J/K/mol
667.4 K	144.3 J/K/mol
668.4 K	144.3 J/K/mol
669.4 K	144.4 J/K/mol
670.4 K	144.4 J/K/mol
671.4 K	144.4 J/K/mol
672.4 K	144.5 J/K/mol
673.4 K	144.5 J/K/mol
674.4 K	144.5 J/K/mol
675.4 K	144.5 J/K/mol
676.4 K	144.6 J/K/mol
677.4 K	144.6 J/K/mol
678.4 K	144.7 J/K/mol
679.4 K	144.8 J/K/mol
680 K	144.7 J/K/mol
680.4 K	144.9 J/K/mol
681.4 K	144.9 J/K/mol
682.4 K	145 J/K/mol
683.4 K	145.1 J/K/mol
684.4 K	145.2 J/K/mol
685.4 K	145.3 J/K/mol
686.4 K	145.3 J/K/mol
687.4 K	145.4 J/K/mol
688.4 K	145.4 J/K/mol
689.4 K	145.5 J/K/mol
690.4 K	145.5 J/K/mol
691.4 K	145.6 J/K/mol
692.4 K	145.6 J/K/mol
693.4 K	145.7 J/K/mol
694.4 K	145.8 J/K/mol
695.4 K	145.8 J/K/mol
696.4 K	145.9 J/K/mol
697.4 K	145.9 J/K/mol
698.4 K	145.9 J/K/mol
699.4 K	145.9 J/K/mol
700 K	145.4 J/K/mol
700.4 K	145.9 J/K/mol
701.4 K	145.9 J/K/mol
702.4 K	145.9 J/K/mol
703.4 K	145.9 J/K/mol
704.4 K	145.9 J/K/mol
705.4 K	145.9 J/K/mol
706.4 K	145.8 J/K/mol
707.4 K	145.8 J/K/mol
708.4 K	145.8 J/K/mol
709.4 K	145.9 J/K/mol
710.4 K	145.9 J/K/mol
711.4 K	145.9 J/K/mol
712.4 K	146 J/K/mol
713.4 K	146 J/K/mol
714.4 K	146 J/K/mol
715.4 K	146 J/K/mol
716.4 K	146.1 J/K/mol
717.4 K	146.2 J/K/mol
718.4 K	146.2 J/K/mol
719.4 K	146.3 J/K/mol
720 K	146.1 J/K/mol
720.4 K	146.3 J/K/mol
721.4 K	146.3 J/K/mol
722.4 K	146.3 J/K/mol
723.4 K	146.4 J/K/mol
724.4 K	146.4 J/K/mol
725.4 K	146.5 J/K/mol
726.4 K	146.5 J/K/mol
727.4 K	146.6 J/K/mol
728.4 K	146.6 J/K/mol
729.4 K	146.6 J/K/mol
730.4 K	146.7 J/K/mol
731.4 K	146.7 J/K/mol
732.4 K	146.7 J/K/mol
733.4 K	146.7 J/K/mol
734.4 K	146.7 J/K/mol
735.4 K	146.7 J/K/mol
736.4 K	146.7 J/K/mol
737.4 K	146.7 J/K/mol
738.4 K	146.8 J/K/mol
739.4 K	146.9 J/K/mol
740 K	146.8 J/K/mol
740.4 K	147 J/K/mol
741.4 K	147 J/K/mol
742.4 K	147.1 J/K/mol
743.4 K	147.1 J/K/mol
744.4 K	147.1 J/K/mol
745.4 K	147.2 J/K/mol
746.4 K	147.2 J/K/mol
747.4 K	147.3 J/K/mol
748.4 K	147.3 J/K/mol
749.4 K	147.3 J/K/mol
750.4 K	147.3 J/K/mol
751.4 K	147.4 J/K/mol
752.4 K	147.4 J/K/mol
753.4 K	147.4 J/K/mol
754.4 K	147.5 J/K/mol
755.4 K	147.5 J/K/mol
756.4 K	147.6 J/K/mol
757.4 K	147.7 J/K/mol
758.4 K	147.7 J/K/mol
759.4 K	147.8 J/K/mol
760 K	147.4 J/K/mol
760.4 K	147.8 J/K/mol
761.4 K	147.8 J/K/mol
762.4 K	147.7 J/K/mol
763.4 K	147.7 J/K/mol
764.4 K	147.7 J/K/mol
765.4 K	147.8 J/K/mol
766 K	147.5 J/K/mol
766.4 K	147.9 J/K/mol
